The target in one test is NMDAR. More on the design: method as in Eurofins Panlabs Discovery Services Taiwan. As to conditions: assay parameter of the contract laboratory; ref Eurofins Panlabs Discovery Services Taiwan; read-out: Kd of the radioligand; cited from earlier work.
The target of test [1] is T1, NR1-2B NMDAR (Homo sapiens, UniProt Q05586+Q13224). As to the kind of experiment: cell-based. The format is cell-based. More on the design: host or cells: CHO (CHO-hNR1-h2B), constitutive expression.
Test [2] deals with T2, NR1-2C NMDAR (Homo sapiens, UniProt Q05586+Q14957). In words: cell-based. The format is cell-based. More on the design: host or cells: CHO (CHO-hN1-h2C), tetracycline-induced expression.
The target of test [3] is T3, NR1-2D NMDAR (Homo sapiens, UniProt O15399+Q05586). In words: cell-based. The format is cell-based. Set-up: host or cells: CHO (CHO-hN1-h2D), tetracycline-induced expression.
Test [4] addresses T4, NR1-2A NMDAR (Homo sapiens, UniProt Q05586+Q12879). In words: cell-based. In kind it is cell-based. Set-up: host or cells: CHO (CHO-hNR1-h2A), tetracycline-induced expression.
Test [5] concerns the target T1, NR1-2B NMDAR. In words: Whole-cell automated patch-clamp (QPatch) in 1 mM Mg2+. The format is cell-based. More on the design: host or cells: CHO (CHO-hNR1-h2B), constitutive expression. As to conditions: 1 mM MgCl2, 10 μM L-glutamate, 10 μM glycine. On the procedure:
(§1) Data were obtained in automated patch-clamp platform. […] Statistical results of one-way analysis of variance (ANOVA) followed by Tukey’s multiple comparisons test also reported p < 0.05 (*), p < 0.01 (**), p < 0.001 (***), and p < 0.0001 (****). Glu is glutamate.
(§2) For QPatch experiments, cells were grown in T-flasks first at 37 °C, 5% CO2 for 3 to 4 h, then at 30 °C, 5% CO2 for 18 to 24 h in DMEM/F12 medium with added 500 μM ketamine and 10 μg/mL tetracycline (except for NR1-2B-CHO cells) without additional antibiotics. Cells were manually detached from the culture dish and automatically dispensed in QPatch wells with extracellular solution in the presence of 1 mM Mg^2+ and 500 μM ketamine.
(§3) Holding potential was −80 mV, and voltage protocol included a depolarizing 2-s step pulse to +60 mV to check the quality of the seal and cell NMDAR expression level, followed by a 2-s ramp-up to holding potential.
(The patch-clamp technique gives a direct electrical read-out from membranes.)

The target in test [6] is T2, NR1-2C NMDAR. Described as above. As to conditions: 1 mM MgCl2, 10 μM L-glutamate, 10 μM glycine. In kind it is cell-based. More on the design: host or cells: CHO (CHO-hN1-h2C), tetracycline-induced expression. The protocol:
as §1, §2, §3

For test [7], the target named is T3, NR1-2D NMDAR. Described as above. In kind it is cell-based. More on the design: host or cells: CHO (CHO-hN1-h2D), tetracycline-induced expression. The settings on record: 1 mM MgCl2, 10 μM L-glutamate, 10 μM glycine. The protocol: as §1, §2, §3
Test [8] has as its target T4, NR1-2A NMDAR. The description is as above. In kind it is cell-based. More on the design: host or cells: CHO (CHO-hNR1-h2A), tetracycline-induced expression. As to conditions: 1 mM MgCl2, 10 μM L-glutamate, 10 μM glycine. On the procedure: as §1, §2, §3

As usually defined, the Kd is the concentration at which binding is half-saturated.

T1 sequence (Q13224 27-1484, other chains not shown): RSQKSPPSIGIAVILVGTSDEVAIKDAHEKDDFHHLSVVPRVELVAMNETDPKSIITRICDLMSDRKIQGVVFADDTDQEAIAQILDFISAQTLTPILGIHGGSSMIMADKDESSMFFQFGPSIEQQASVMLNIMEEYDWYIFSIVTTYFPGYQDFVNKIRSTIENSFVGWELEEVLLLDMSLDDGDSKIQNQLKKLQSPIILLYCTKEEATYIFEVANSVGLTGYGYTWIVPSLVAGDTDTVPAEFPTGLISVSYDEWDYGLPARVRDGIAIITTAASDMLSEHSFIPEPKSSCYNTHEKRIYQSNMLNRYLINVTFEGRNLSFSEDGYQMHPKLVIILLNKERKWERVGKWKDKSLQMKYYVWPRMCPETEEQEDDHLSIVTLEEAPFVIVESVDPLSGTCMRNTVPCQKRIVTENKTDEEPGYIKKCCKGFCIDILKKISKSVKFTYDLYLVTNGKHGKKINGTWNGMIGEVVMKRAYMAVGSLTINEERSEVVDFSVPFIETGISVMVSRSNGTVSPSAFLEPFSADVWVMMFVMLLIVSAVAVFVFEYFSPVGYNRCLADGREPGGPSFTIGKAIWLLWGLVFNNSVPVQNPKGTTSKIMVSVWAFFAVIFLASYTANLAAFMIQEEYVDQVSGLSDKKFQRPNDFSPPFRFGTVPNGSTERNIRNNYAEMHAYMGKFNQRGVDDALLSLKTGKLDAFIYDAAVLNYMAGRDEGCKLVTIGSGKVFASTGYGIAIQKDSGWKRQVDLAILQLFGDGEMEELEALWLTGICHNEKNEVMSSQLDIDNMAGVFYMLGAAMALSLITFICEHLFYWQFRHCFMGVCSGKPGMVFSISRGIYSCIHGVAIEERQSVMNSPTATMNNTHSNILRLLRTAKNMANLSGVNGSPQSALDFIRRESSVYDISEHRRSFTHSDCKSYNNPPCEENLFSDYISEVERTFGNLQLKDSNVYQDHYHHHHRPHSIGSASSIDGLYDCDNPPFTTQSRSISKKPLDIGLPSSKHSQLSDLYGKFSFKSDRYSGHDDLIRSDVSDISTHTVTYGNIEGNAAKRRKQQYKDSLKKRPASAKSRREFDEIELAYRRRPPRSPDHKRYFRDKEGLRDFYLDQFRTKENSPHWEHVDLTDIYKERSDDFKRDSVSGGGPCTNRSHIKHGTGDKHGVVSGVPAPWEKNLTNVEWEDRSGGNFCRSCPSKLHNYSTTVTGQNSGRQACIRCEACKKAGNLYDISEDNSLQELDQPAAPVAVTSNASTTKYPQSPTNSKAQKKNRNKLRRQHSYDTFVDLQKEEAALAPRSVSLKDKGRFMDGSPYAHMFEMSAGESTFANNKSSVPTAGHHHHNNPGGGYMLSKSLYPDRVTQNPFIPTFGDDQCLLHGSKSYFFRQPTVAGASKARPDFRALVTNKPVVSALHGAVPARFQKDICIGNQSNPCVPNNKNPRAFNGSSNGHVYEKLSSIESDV
T4 sequence (Q12879 23-1464, other chains not shown): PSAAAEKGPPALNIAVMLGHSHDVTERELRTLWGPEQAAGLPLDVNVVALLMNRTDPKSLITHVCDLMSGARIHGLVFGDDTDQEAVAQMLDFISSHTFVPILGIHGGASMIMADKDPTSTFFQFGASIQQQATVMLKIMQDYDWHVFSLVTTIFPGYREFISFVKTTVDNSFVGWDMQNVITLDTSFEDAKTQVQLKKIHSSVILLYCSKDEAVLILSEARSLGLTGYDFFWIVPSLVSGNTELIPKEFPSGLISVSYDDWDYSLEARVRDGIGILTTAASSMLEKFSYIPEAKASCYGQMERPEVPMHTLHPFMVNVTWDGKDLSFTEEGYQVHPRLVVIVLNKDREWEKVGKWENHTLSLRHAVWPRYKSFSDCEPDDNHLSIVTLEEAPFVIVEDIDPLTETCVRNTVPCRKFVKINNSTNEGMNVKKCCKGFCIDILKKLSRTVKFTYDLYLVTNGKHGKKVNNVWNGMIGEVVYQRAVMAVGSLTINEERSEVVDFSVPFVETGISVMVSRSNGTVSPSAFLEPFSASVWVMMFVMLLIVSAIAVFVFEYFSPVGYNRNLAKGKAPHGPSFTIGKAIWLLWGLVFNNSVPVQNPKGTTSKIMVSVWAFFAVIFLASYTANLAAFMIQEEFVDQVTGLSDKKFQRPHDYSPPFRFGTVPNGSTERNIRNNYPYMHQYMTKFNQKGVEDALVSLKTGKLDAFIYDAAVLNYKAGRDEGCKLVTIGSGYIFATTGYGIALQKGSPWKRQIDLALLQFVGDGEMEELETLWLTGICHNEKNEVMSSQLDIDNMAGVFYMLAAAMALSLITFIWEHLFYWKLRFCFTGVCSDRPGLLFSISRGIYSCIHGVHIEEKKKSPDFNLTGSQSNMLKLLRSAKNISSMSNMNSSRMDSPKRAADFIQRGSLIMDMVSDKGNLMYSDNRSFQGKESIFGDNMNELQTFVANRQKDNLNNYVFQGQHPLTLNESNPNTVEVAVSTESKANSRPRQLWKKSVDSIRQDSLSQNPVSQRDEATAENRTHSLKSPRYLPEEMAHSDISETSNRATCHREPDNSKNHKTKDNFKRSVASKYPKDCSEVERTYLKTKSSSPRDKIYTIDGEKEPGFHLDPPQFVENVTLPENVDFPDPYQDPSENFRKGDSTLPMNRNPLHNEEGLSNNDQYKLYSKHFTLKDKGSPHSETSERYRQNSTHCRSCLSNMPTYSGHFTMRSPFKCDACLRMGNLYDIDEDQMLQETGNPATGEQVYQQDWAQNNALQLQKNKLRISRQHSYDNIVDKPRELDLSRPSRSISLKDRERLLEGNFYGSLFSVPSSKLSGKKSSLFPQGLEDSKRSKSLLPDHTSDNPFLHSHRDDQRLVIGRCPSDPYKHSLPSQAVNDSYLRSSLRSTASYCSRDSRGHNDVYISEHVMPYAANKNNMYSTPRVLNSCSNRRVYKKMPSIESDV
T3 sequence (O15399 28-1336, other chains not shown): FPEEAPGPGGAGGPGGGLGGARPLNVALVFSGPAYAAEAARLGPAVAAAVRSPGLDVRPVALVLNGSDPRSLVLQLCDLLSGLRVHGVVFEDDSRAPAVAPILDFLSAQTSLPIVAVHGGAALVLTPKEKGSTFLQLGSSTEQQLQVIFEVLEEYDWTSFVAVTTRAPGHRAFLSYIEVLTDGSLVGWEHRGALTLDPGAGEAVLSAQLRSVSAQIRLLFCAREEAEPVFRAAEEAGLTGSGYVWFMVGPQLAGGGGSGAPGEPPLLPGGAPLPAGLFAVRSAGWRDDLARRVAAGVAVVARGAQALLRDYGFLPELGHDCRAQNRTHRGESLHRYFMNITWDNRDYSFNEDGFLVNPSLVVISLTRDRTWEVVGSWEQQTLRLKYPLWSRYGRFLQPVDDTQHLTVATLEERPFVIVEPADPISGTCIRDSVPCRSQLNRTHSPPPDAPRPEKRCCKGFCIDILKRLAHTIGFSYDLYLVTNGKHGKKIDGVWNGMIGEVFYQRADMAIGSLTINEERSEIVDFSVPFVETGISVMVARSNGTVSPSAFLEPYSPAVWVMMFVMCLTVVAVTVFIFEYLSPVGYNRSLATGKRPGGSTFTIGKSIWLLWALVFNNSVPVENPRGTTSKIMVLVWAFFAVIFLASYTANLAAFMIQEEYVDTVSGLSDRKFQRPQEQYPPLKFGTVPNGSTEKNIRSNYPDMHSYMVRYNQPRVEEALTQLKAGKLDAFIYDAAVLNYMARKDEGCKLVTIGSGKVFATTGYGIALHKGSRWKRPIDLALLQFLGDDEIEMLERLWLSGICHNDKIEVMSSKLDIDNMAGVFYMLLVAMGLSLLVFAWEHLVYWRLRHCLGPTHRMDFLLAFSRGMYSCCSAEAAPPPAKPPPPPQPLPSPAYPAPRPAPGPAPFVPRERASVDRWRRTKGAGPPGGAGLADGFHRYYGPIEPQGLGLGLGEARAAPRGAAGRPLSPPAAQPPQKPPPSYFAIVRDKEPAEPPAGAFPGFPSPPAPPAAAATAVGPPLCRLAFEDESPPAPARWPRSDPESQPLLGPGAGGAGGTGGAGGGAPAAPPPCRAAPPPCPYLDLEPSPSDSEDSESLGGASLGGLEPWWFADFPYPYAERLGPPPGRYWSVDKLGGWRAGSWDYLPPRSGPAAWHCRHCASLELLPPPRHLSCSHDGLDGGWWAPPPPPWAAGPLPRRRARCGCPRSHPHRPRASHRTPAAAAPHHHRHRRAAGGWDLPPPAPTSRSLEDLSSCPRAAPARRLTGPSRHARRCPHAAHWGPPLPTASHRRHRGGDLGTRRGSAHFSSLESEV

With `c1csc(C2(N3CCCCC3)CCCCC2)c1` [[^3H]TCP], at NMDAR, the Kd was 8.4 nM.
For `N[C@@H](CCC(=O)O)C(=O)O` [L-glutamate], the “L-glutamate Max. (maximal asymptote), alone” value on NR1-2B NMDAR [1] turned out to be 111%; on NR1-2C NMDAR [2], 106%; on NR1-2D NMDAR [3] it was 105%; on NR1-2A NMDAR [4], 106%.
With `[Cl-].[Cl-].[Mg+2]` [MgCl2], the “current at −60 mV normalized to −30 mV current (100%)” value was determined as 26 ± 1.8% at NR1-2B NMDAR [5], 64 ± 5.6% at NR1-2C NMDAR [6], 55 ± 1.8% on NR1-2D NMDAR [7] and 24 ± 2.4% on NR1-2A NMDAR [8].

Source of the values: paper PMC9414551 (Pharmaceuticals, 2022).
